Source: patent publication US10759798B2, “ABT-199 addition salt and crystal form thereof, preparation method thereof, and pharmaceutical composition thereof” (Hangzhou SoliPharma Co., Ltd, priority 2016, dated 2020)
Entries after “also recorded” stand apart in the source; their conditions may differ. Structures can show the parent of a compound that is named as a salt. Blank lines part the entries; values can stand above or below the molecule they belong to.

Experiments:
[1] = Water solubility test (Comparative Example 1); type: physicochemical
Procedure: The ABT-199 monohydrochloride Form A prepared in the present invention was compared with the known ABT-199 hydrochloride Form II prepared according to the Preparation Example 2 in a water solubility test. In specific, 10 mg sample was placed in a 50 mL glass bottle, and added with 10 mL deionized water dropwisely at 25° C. to form a suspension. The suspension was treated with ultrasonics until the suspension was stirred for 24 hours and the sample was almost dissolved, the resultant solution was filtered and subject to HPLC detection, and the sample solubility in water was calculated.

[2] = Crystalline stability at 130° C. for 1 day by XRPD (Comparative Example 2); type: physicochemical; details: for crystalline form after being stored at 130° C. for 1 day: XRPD
Procedure: The ABT-199 monohydrochloride Form B prepared by the present invention was compared with the known ABT-199 hydrochloride Form II prepared according to the Preparation Example 2. In specific, 30 mg samples were placed at 130° C. for 1 day, and XRPD was carried out to investigate the crystalline stability.

[3] = Slurry competition experiment for crystalline form stability (Comparative Example 3); type: physicochemical; details: for crystalline form in slurry competition experiment: water-saturated ethyl acetate, 3 days, room temperature or 40° C.
Procedure: The ABT-199 monohydrochloride Form C prepared by the invention and the known ABT-199 hydrochloride Form II prepared by Preparation Example 2 were used for the competition experiment to test the crystalline form stability. In specific, 20 mg ABT-199 Form II and 20 mg ABT-199 monohydrochloride Form C samples were added to the same water-saturated ethyl acetate to form slurries, which were stirred for 3 days at room temperature or at 40° C., then the samples were analyzed by XRPD to investigate their crystalline form stability.

[4] = Water solubility test (Comparative Example 4); type: physicochemical; details: 25° C.
Procedure: The ABT-199 dihydrochloride Form 1 prepared by the invention and the known ABT-199 hydrochloride Form II prepared according to the Preparation Example 2 were tested for water solubility. In specific, 10 mg sample was placed in a 20 mL glass bottle, and added with 10 mL deionized water at 25° C. to form a suspension, which was stirred for 24 hours at 25° C., filtered, and detected by HPLC, and the solubility of the sample in water was calculated.

[5] = Storage stability at room temperature and 10%-90% RH for 4 months; type: physicochemical; details: room temperature
[6] = cited from earlier work
[7] = slurry of Form II and Form C in water-saturated ethyl acetate, XRPD

SMILES: CC1(C)CCC(CN2CCN(c3ccc(C(=O)NS(=O)(=O)c4ccc(NCC5CCOCC5)c([N+](=O)[O-])c4)c(Oc4cnc5[nH]ccc5c4)c3)CC2)=C(c2ccc(Cl)cc2)C1.Cl [ABT-199 hydrochloride Form II, reference compound]
solubility ([1]; deionized water, 25° C., 24 hours, HPLC): About 20 μg/mL | solubility in water (in words) ([1]; water): low solubility in water | crystalline form after being stored at 130° C. for 1 day ([2]; 130° C., 1 day, listed as ABT-199 monohydrochloride Form II): changes; also recorded: Phase transition occurred | stability at high temperature (in words) ([2]; high temperature): poor stability at high temperature | crystalline form after stirring at 40° C. for 3 days [3, 7]: Convered to Form C | crystalline form in slurry competition experiment [3]: changed to Form C | crystalline form in slurry competition experiment ([3]; listed as ABT-199 monohydrochloride Form II): converted to Form C | solubility ([4]; deionized water, stirred 24 hours, HPLC): About 20 μg/mL

SMILES: CC1(C)CCC(CN2CCN(c3ccc(C(=O)NS(=O)(=O)c4ccc(NCC5CCOCC5)c([N+](=O)[O-])c4)c(Oc4cnc5[nH]ccc5c4)c3)CC2)=C(c2ccc(Cl)cc2)C1 [ABT-199 monohydrochloride Form B]
high-temperature stability compared with known ABT-199 hydrochloride Form II ([2]; 130° C., 1 day): better high-temperature-stability | crystalline form after being stored at 130° C. for 1 day ([2]; 130° C., 1 day): Form B | crystalline form after being stored at 130° C. for 1 day ([2]; 130° C., 1 day, listed as Form B): does not change | appearance, XRPD pattern and melting point after storage ([5]; listed as Form B): remains unchanged

SMILES: CC1(C)CCC(CN2CCN(c3ccc(C(=O)NS(=O)(=O)c4ccc(NCC5CCOCC5)c([N+](=O)[O-])c4)c(Oc4cnc5[nH]ccc5c4)c3)CC2)=C(c2ccc(Cl)cc2)C1 [ABT-199 hydrochloride Form I]
stability when exposed to air [6]: easily converted to ABT-199 hydrochloride Form II

The next lines start with the values.

solubility at 24 h ([4]; thermodynamic from solid, deionized water, stirred 24 hours, HPLC): ~0.05 mg/mL | solubility in water compared with known ABT-199 hydrochloride Form II [4]: higher solubility | solubility in water compared with known ABT-199 hydrochloride Form II ([4]; listed as Form 1): higher | appearance, XRPD pattern and melting point after storage ([5]; listed as Form 1): remains unchanged
SMILES: CC1(C)CCC(CN2CCN(c3ccc(C(=O)NS(=O)(=O)c4ccc(NCC5CCOCC5)c([N+](=O)[O-])c4)c(Oc4cnc5[nH]ccc5c4)c3)CC2)=C(c2ccc(Cl)cc2)C1 [ABT-199 dihydrochloride Form 1]

crystalline form after stirring at 40° C. for 3 days [3, 7]: Form C | crystalline form after stirring at room temperature for 3 days ([3]; slurry of Form II and Form C in water-saturated ethyl acetate, room temperature, XRPD): Form C | crystalline form in slurry competition experiment [3]: remains unchanged | appearance, XRPD pattern and melting point after storage ([5]; listed as Form C): remains unchanged
SMILES: CC1(C)CCC(CN2CCN(c3ccc(C(=O)NS(=O)(=O)c4ccc(NCC5CCOCC5)c([N+](=O)[O-])c4)c(Oc4cnc5[nH]ccc5c4)c3)CC2)=C(c2ccc(Cl)cc2)C1 [ABT-199 monohydrochloride Form C]

solubility at 24 h ([1]; thermodynamic from solid, deionized water, 25° C., 24 hours, HPLC): ~0.04 mg/mL | solubility in water compared with known ABT-199 hydrochloride Form II ([1]; water, 25° C.): higher solubility | appearance, XRPD pattern and melting point after storage ([5]; listed as Form A): unchanged
SMILES: CC1(C)CCC(CN2CCN(c3ccc(C(=O)NS(=O)(=O)c4ccc(NCC5CCOCC5)c([N+](=O)[O-])c4)c(Oc4cnc5[nH]ccc5c4)c3)CC2)=C(c2ccc(Cl)cc2)C1 [ABT-199 monohydrochloride Form A]
